Like-named read-outs stand apart in the source and are kept apart here.

Drawing on patent US20230136702A1, “Inhibitors of Human Herpesviruses” (The Governors of the University of Alberta, priority 2020, published 2023), this text covers IC50, CC50 and EC50 for 8 molecules.

Data set [1] concerns the target T1, HCMV DNA polymerase (UL54) (Human cytomegalovirus, UniProt P08546).
T1 construct: 6His (C); made in house; host or cells: Sf9 insect cells (baculovirus, pFastBac)
In words: HCMV DNA polymerase enzyme inhibition assay (ProFoldin, fluorescence). It counts as biochemical. The following applies: 37° C., duplicate, max 40 μM. As to the method:
The HCMV DNA polymerase assay was developed by ProFoldin. The assay detects the formation of DNA from the DNA polymerase reaction in the presence of a DNA template, dATP and dGTP. The formation of the DNA is detected by using a fluorescence method. The fluorescence intensity increases when DNA is generated by the enzyme reaction.
A time-course experiment was performed aside the enzyme inhibition assay to ensure the assay was sensitive to the enzyme inhibition. The wells for the time-course experiment contained 1 μL of DMSO and the same reaction mixture as that in the enzyme inhibition assay. The time-course data varied between plates. The reactions were stopped when the fluorescence reached a value of about 3700 for each plate.
Exemplary solid compounds (e.g., as described herein) were dissolved in DMSO to make […] stock solutions. PFA (phosphonoformic acid or phosphonomethanoic acid) was used as a positive control. The compound mother plates were prepared at 50× concentrated compound concentrations with a 2-fold serial dilution. All the exemplary compounds except PFA were diluted in DMSO. PFA was diluted in water. The maximum compound concentration was 2 mM that gave the final concentration of 40 μM in the assay. One microliter of the 50× stock solutions was transferred into the assay plates. Three copies of assay plates were prepared, two for HCMV DNA polymerase assay and one for compound background control.
The following is the protocol for enzyme inhibition performed at 37° C.:
1. Prepared a premix composed of 35347 μL of H2O, 5220 μL of 10× assay buffer and 149 μL of 350×HCMV DNA polymerase.
2. Added 39 μL of the premix into the wells with 1 μL of the compound. Incubated the mixture for at least 5 min.
3. Added 10 μL of 5×dNTP (0.1 mM), 5×DNA template solutions into each well and incubated the solution until the fluorescence value reached a value about 3700 for the DMSO-only control wells.
4. Added 50 μL of the 1× dye into the wells.
5. Read the fluorescence at emission wavelength of 535 nm and excitation wavelength of 485 nm.
For the compound background reading, added 99 μL of water in the wells with 1 μL of compounds and read the fluorescence. […] The 0% inhibition value F0 was from the wells with DMSO (no inhibitor).
The background values were subtracted from the fluorescence reading to get the net fluorescence values. The net fluorescence values were used for calculation of the percentage inhibition.
The assay was performed in duplicate for the test article at […], 1.25, 0.625, 0.313, 0.156 and 0.078 μM. The IC50 curves were obtained by fitting the percentage inhibition values with the compound concentrations using Prism GraphPad software.

Data set [2] can be described thus: Cytotoxicity in MRC5 cells without virus infection (CCK8). To be noted: human. It counts as cell-based. As to the method:
(§1) Exemplary compounds (e.g., as described herein) were prepared as 20 mM stock solutions with DMSO. Reference compound was ganciclovir (Sigma). Compounds were tested at 8 concentrations, 3-fold serial dilutions, in duplicate for EC50 and CC50 determinations. The highest testing concentrations of the exemplary compounds and reference compound were 40 μM and 100 μM, respectively. The final concentration of DMSO in the cell culture was 0.5%.
(§2) MRC5 cells (ATCC CCL-171) was obtained from the ATCC and maintained in the EMEM (Sigma) supplemented with 10% FBS (HyClone), 1% L-glutamine (Gibco), 1% NEAA (Gibco), and 1% PS (Hyclone). Reagent:
Cytotoxicity of the compounds was assessed under the same conditions, but without virus infection, in parallel. Cell viability was measured with CCK8 following the manufacturer's manual. CC50 values were then calculated based on cytotoxicity at the test concentrations normalized by the medium control (medium only).
(§3) Antiviral activity and cytotoxicity of the compounds were expressed as % Inhibition and % Viability, respectively, and calculated with the formulas below:
Viability (%)=(Raw dataCPD−AverageMC)/(AverageCC−AverageMC)*100
(§4) Raw dataCPD indicates the values of the compound-treated wells; AverageVC, AverageCC and AverageMC indicate the average values of the virus control (cells infected with virus, without compound treatment), cell control and medium control wells, respectively.
(§5) EC50 and CC50 values were calculated using the GraphPad Prism software.

Data set [3] concerns HCMV US3-6-EGFP-HCMV-AD169 strain. In words: In vitro inhibitory (antiviral) activity against HCMV, GFP reporter in MRC5 cells. The following applies: Human betaherpesvirus 5, AD169, MRC5, 96 h, read-out: HCMV Antiviral EC50 range. The class given is cell-based, Human cytomegalovirus (HCMV). As to the method: as §1
HCMV US3-6-EGFP-HCMV-AD169 strain was obtained from Institute Pasteur of Shanghai, CAS. The virus contains GFP as a reporter of the viral replication.
as §2
In 96-well plates, MRC5 cells were seeded at 20,000 cells per well and cultured at 37° C. and 5% C02 overnight. Next day, compounds (8 concentrations, 3-fold dilutions, in duplicate) and US3-6-EGFP-HCMV-AD169 (MOI=0.1) were added to the cells. The resulting cultures were incubated at 37° C. and 5% C02 for 4 days. Fluorescence intensity was determined by Acumen Cellista (TTP LabTech). The antiviral activity of each compound was calculated based on the inhibition of expression of GFP at each concentration normalized by the cell control (cells without virus infection or compound treatment).
as §3
Inhibition (%)=100−(Raw dataCPD−AverageCC)/(AverageVC−AverageCC)*100
as §4, §5

A further data set concerns the target T2, hERG potassium channel (Homo sapiens, UniProt Q12809).
T2 construct: host or cells: CHO cells stably expressing hERG
In words: Inhibition of hERG potassium channel, automated patch clamp (SyncroPatch 384PE) in CHO cells. It counts as cell-based. As to the method:
This automated patch clamp method (SyncroPatch 384PE) CHO cells stably expressing hERG potassium channels from Sophion Biosciences were used for this test.
The cells were cultured in a humidified and air-controlled (5% C02) incubator at 37° C.
The CHO cells which were at least two days after plating and more than 75% confluent would be used for experiments. Before testing, cells were harvested using TrypLE and resuspended in the physiological solution at the room temperature.
For the electrophysiological recordings the following solutions were used (Table 5). The physiological solution and external solution were prepared at least one month. The intracellular solution was prepared in batches aliquoted, and stored at 4° C. until used.
Exemplary compounds (e.g., as described herein) were dissolved in 100% DMSO to obtain stock solutions for different test concentrations. Then the stock solutions were further diluted into external solution to achieve final concentrations for testing. Visual check for precipitation was conducted before testing. Final DMSO concentration in external solution was not more than 0.30% for the compounds.
From this holding potential of −80 mV, the voltage was first stepped to −50 mV for 80 ms for leak subtraction, and then stepped to +20 mV for 4800 ms to open hERG channels. After that, the voltage was stepped back down to −50 mV for 5000 ms, causing a “rebound” or tail current, which was measured and collected for data analysis. Finally, the voltage was stepped back to the holding potential (−80 mV, 1000 ms). This voltage command protocol was repeated every 20000 msec. This command protocol was performed continuously during the test (vehicle control and test compound).
hERG SyncroPatch assay was conducted at room temperature. The Setup, Prime Chip, Catch and Seal Cells, Amplifier Settings, Voltage and Application Protocols were established with Biomek Software (Nanion).
One addition of 40 μL of the vehicle was applied, followed by 300s for a baseline period. Then the doses of exemplary test compounds were added with 40 μL. The exposure of test compound at each concentration was no less than 300s. […] Five concentrations (0.494 μM, 1.48 μM, 4.44 μM, 13.33 μM and 40.00 μM) were tested for each compound. Minimum 2 replicates per concentration were obtained.
Within each well recording, percent of control values were calculated for each test compound concentration current response based on peak current in presence of reference control (current response/peak current)×100%. The Dose-Response curves were fit to the standard Hill equation as shown below:
Ipost cpd/Ipre cpd=Bottom+(Top−Bottom)/(1+10^((Log IC50−X)*HillSlope))
Where X is the logarithm of concentration, Ipost cpd/Ipre cpd is the normalized peak current amplitude, Top is 1 and Bottom is equal to 0.
Curve-fitting and IC50 calculations were performed by GraphPad Prism 5.0. If the inhibition obtained at the lowest concentration tested was over 50%, or at the highest concentration tested was less than 50%, we reported the IC50 as less than lowest concentration, or higher than highest concentration, respectively.
(The hERG channel carries a current that helps repolarise heart muscle cells.)

The mark [4] stands for this setting: CHO cells stably expressing hERG, room temperature, 0.494-40.00 μM, read-out: CHO-hERG Activity Range.

T2 sequence (Q12809 whole entry): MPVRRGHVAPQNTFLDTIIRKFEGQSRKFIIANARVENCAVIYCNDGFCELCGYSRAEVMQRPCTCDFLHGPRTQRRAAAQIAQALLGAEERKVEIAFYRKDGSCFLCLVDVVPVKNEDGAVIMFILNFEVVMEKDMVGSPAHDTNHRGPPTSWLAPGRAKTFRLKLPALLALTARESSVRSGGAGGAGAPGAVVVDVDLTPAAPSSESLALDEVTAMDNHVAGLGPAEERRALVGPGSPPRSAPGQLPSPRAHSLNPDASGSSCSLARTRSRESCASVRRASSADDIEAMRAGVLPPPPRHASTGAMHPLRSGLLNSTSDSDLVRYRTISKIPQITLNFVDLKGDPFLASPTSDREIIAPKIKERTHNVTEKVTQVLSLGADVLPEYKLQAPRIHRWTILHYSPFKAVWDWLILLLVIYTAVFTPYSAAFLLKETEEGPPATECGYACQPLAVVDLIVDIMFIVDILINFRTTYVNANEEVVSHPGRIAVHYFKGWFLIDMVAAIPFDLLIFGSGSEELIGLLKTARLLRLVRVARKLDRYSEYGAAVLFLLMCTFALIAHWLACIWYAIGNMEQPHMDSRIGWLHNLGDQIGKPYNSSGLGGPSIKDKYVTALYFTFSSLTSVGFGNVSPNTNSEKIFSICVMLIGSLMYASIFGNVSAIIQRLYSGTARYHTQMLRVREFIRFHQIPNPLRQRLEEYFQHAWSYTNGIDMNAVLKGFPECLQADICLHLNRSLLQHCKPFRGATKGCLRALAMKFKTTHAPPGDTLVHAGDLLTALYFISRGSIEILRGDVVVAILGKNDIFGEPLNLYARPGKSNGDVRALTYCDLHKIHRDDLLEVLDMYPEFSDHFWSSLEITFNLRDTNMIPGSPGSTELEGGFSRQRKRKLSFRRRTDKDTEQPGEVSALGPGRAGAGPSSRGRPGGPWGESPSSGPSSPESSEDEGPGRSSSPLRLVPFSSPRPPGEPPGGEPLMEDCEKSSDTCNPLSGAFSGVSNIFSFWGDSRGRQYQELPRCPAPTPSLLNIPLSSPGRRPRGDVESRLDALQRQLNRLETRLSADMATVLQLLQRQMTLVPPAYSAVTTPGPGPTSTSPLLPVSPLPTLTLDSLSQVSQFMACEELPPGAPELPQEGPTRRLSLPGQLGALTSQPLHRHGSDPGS
T1 sequence (P08546 whole entry): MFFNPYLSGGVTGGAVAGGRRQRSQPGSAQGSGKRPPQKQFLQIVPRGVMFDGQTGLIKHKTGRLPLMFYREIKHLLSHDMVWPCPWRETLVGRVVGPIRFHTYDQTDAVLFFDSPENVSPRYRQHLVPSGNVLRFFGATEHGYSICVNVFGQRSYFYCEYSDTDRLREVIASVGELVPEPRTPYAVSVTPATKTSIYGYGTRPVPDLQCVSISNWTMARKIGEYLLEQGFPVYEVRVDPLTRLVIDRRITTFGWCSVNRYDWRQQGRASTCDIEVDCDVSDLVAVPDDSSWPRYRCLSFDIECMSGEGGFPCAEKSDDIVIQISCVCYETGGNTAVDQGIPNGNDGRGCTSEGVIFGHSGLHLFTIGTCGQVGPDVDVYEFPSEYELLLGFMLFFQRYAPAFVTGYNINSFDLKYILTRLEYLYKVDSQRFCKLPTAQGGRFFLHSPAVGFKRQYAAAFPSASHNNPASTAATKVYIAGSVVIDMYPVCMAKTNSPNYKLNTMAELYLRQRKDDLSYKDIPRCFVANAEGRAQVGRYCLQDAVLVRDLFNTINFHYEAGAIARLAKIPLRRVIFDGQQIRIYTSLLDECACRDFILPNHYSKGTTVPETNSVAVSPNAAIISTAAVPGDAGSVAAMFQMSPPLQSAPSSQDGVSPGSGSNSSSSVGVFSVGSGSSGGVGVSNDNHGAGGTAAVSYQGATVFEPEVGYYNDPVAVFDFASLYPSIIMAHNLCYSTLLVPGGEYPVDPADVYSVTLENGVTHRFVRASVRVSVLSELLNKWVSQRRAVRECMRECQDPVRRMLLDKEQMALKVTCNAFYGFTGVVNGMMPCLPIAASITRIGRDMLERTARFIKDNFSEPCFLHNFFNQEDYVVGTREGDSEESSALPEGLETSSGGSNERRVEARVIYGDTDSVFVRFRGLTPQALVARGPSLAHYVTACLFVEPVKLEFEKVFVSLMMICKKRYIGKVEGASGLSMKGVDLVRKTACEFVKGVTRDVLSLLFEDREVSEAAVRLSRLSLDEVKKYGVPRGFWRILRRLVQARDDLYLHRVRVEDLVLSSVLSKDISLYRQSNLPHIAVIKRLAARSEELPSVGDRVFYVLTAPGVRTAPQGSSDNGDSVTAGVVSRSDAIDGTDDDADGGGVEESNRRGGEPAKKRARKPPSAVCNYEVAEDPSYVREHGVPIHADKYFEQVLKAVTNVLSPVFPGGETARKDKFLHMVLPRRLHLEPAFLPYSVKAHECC

One may read the CC50 as the concentration at which the toxic effect on the cells reaches its halfway point. Higher therefore signals better tolerance by the cells. Broadly, the EC50 is the concentration needed to bring the measured effect to its halfway point. On to `CN(C)CCN1CCN(c2cnc3c(cc(C(=O)NCc4ccc(Cl)cc4)c(=O)n3CC(=O)N3CC(C)(F)C3)n2)C1=O` [Compound 42, N-[(4-chlorophenyl)methyl]-2-{3-[2-(dimethylamino)ethyl]-2-oxoimidazolidin-1-yl}-5-[2-(3-fluoro-3-methylazetidin-1-yl)-2-oxoethyl]-6-oxo-5,6-dihydropyrido[2,3-b]pyrazine-7-carboxamide], for which the IC50 in data set [1] is > 1 µM; at hERG potassium channel (setting [4]), > 10 µM. Moreover, the CC50 at 4 days in data set [2] is > 40 µM. For the same molecule, the EC50 in data set [3] was < 1 µM.
Consider `CC1(F)CN(C(=O)Cn2c(=O)c(C(=O)NCc3ccc(Cl)cc3)cc3nc(N4CCCC4=O)cnc32)C1` [Compound 1, N-[(4-chlorophenyl)methyl]-5-[2-(3-fluoro-3-methylazetidin-1-yl)-2-oxoethyl]-6-oxo-2-(2-oxopyrrolidin-1-yl)-5,6-dihydropyrido[2,3-b]pyrazine-7-carboxamide], for which the IC50 was < 1 µM in data set [1] and > 10 µM at hERG potassium channel (setting [4]). Besides, the CC50 at 4 days in data set [2] is < 20 µM. Moreover, the EC50 in data set [3] was < 1 µM.
With `CC1(C)CN(C(=O)Cn2c(=O)c(C(=O)NCc3ccc(Cl)cc3)cc3cc(N4CCN(C(C)(C)C(=O)O)C4=O)cnc32)C1` [Compound 45, 2-(3-(6-{[(4-chlorophenyl)methyl]carbamoyl}-8-(2-(3,3-dimethylazetidin-1-yl)-2-oxoethyl)-7-oxo-7,8-dihydro-1,8-naphthyridin-3-yl)-2-oxoimidazolidin-1-yl)-2-methylpropanoic acid], the IC50 was < 1 µM in data set [1] and > 10 µM on hERG potassium channel (setting [4]). Besides, the CC50 at 4 days in data set [2] was > 40 µM. Moreover, the EC50 in data set [3] was < 1 µM.
Turning to `NCCN1CCN(c2cnc3c(cc(C(=O)NCc4ccc(Cl)cc4)c(=O)n3CC(=O)N3CC4(CC4)C3)n2)C1=O` [Compound 36, 2-[3-(2-aminoethyl)-2-oxoimidazolidin-1-yl]-5-[2-(5-azaspiro[2.3]hexan-5-yl)-2-oxoethyl]-N-[(4-chlorophenyl)methyl]-6-oxo-5,6-dihydropyrido[2,3-b]pyrazine-7-carboxamide], the IC50 in data set [1] was < 1 µM; against hERG potassium channel it was > 10 µM. This molecule also came in with a CC50 at 4 days in data set [2] of 18 µM. Besides, in data set [3], the EC50 was < 1 µM.
As to `CN1C(=O)CN(c2cnc3c(cc(C(=O)NCc4ccc(Cl)cc4)c(=O)n3CC(=O)N3CC(C)(F)C3)n2)C1=O` [Compound 14, N-[(4-chlorophenyl)methyl]-5-[2-(3-fluoro-3-methylazetidin-1-yl)-2-oxoethyl]-2-(3-methyl-2,4-dioxoimidazolidin-1-yl)-6-oxo-5,6-dihydropyrido[2,3-b]pyrazine-7-carboxamide], the IC50 in data set [1] is < 1 µM; at hERG potassium channel (setting [4]), > 10 µM. The CC50 at 4 days in data set [2] was > 40 µM. Moreover, in data set [3], the EC50 was > 1 µM.
The matching figures for `CC1(F)CN(C(=O)Cn2c(=O)c(C(=O)NCc3ccc(Cl)cc3)cc3nc(N4CCN(CC(=O)N5CCC5)C4=O)cnc32)C1` [Compound 28, 2-{3-[2-(azetidin-1-yl)-2-oxoethyl]-2-oxoimidazolidin-1-yl}-N-[(4-chlorophenyl)methyl]-5-[2-(3-fluoro-3-methylazetidin-1-yl)-2-oxoethyl]-6-oxo-5,6-dihydropyrido[2,3-b]pyrazine-7-carboxamide]: < 1 µM, > 10 µM, > 40 µM and < 1 µM.
As for `CC1(C)CN(C(=O)Cn2c(=O)c(C(=O)NCc3ccc(Cl)cc3)cc3cc(N4CCN(CC(=O)O)C4=O)cnc32)C1` [Compound 7, [3-(6-{[(4-chlorophenyl)methyl]carbamoyl}-8-[2-(3,3-dimethylazetidin-1-yl)-2-oxoethyl]-7-oxo-7,8-dihydro-1,8-naphthyridin-3-yl)-2-oxoimidazolidin-1-yl]acetic acid], the CC50 at 4 days in data set [2] was > 40 µM. Moreover, the EC50 in data set [3] was > 1 µM. In addition, the IC50 at hERG potassium channel (setting [4]) was > 10 µM.
In the same order, the values of `O=C(O)CN1CCN(c2cnc3c(cc(C(=O)NCc4ccc(Cl)cc4)c(=O)n3CC(=O)N3CC4(CC4)C3)n2)C1=O` [Compound 20, [3-(5-[2-(5-azaspiro[2.3]hexan-5-yl)-2-oxoethyl]-7-{[(4-chlorophenyl)methyl]carbamoyl}-6-oxo-5,6-dihydropyrido[2,3-b]pyrazin-2-yl)-2-oxoimidazolidin-1-yl]acetic acid] are > 40 µM, > 1 µM and > 10 µM.
